Laboratory results: patent US9290440B2, “Bicyclic compound” (TOA EIYO LTD., priority 2012, dated 2016)
Read-outs that look alike come from different tables or passages of the source.

Biological target: T1, human sGC α subunit and β subunit (Homo sapiens, UniProt Q02153)
T1 construct: expressed in transfected cells
T1 sequence (Q02153 1-619): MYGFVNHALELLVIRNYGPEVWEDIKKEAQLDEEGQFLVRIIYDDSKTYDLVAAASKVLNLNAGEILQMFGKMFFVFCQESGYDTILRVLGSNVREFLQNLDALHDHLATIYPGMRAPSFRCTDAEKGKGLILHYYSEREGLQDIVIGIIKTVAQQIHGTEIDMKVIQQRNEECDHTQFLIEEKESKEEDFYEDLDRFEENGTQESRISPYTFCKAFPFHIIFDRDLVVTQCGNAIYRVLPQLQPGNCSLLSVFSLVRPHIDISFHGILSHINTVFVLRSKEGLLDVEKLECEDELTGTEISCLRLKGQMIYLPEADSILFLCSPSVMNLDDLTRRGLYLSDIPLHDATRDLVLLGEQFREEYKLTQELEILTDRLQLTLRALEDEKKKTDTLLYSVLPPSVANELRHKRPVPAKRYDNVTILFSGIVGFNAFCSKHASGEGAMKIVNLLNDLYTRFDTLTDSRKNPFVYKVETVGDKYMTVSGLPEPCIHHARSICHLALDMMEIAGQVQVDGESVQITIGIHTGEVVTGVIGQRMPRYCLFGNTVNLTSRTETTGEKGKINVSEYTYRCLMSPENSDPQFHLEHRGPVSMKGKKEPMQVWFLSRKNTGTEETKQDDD
T1 sequence (Q02108 1-690 partner): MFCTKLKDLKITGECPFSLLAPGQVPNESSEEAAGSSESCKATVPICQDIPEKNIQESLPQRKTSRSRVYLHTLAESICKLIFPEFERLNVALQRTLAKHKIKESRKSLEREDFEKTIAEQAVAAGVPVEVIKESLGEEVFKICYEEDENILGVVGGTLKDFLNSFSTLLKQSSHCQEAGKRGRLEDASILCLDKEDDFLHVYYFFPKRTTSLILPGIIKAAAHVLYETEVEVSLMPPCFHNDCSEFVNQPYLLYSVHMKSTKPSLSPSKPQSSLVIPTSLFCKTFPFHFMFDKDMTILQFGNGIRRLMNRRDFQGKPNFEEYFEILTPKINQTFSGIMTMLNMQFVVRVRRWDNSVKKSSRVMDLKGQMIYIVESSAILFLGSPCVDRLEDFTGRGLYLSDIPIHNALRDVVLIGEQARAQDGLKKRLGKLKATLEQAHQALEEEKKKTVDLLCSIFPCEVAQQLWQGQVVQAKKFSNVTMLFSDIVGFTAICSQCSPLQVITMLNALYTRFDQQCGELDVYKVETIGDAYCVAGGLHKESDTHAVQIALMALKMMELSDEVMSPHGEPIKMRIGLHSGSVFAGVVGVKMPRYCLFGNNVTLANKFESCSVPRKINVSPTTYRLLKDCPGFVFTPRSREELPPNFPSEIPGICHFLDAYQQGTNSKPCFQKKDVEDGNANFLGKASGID
Experiment: Maximum effect of sGC activating function (Ca2+ fluorescence in CHO-K1 cells expressing human sGC and mouse CNGA2)
Format: cell-based
Settings: increase ratio of sGC activity vs control solution at 10 μmol/L test compound
How it was run: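 CHO-K1 cells stably expressing human sGC α/β and mouse CNGA2 were FURA2-AM loaded and then treated with compound at 10 μmol/L for 10 min at RT, in buffer containing 100 μmol/L IBMX, with or without 10 μmol/L ODQ. Ca²⁺ was read as the 340/380 nm excitation ratio. Activity is the % increase over the DMSO control.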

[1] = ODQ not contained, read-out: Emax (%) ODQ− (Heme-dependent)
[2] = with 10 μmol/L ODQ, read-out: Emax (%) ODQ+ (Heme-independent)

Emax at 10 µM [1] [%]	Emax at 10 µM [2] [%]	SMILES
53	86	O=C(O)CCCCN(CCc1ccccc1OCc1ccc(CCc2ccccc2)cc1)Cc1ccc(C(=O)O)cc1 [Cinaciguat, reference compound]
101	99.9	O=C(O)CCCCN(CCc1ccccc1OCc1ccc(SCc2ccccc2)cc1)C1CCCc2cc(C(=O)O)ccc21 (stereo not drawn) [Example 15, 5-{N-[2-[2-(4-Benzylsulfanylbenzyloxyl)phenyl]ethyl]-N-(4-carboxybutyl)amino}-5,6,7,8-tetrahydronaphthalene-2-carboxylic acid]
141	133	O=C(O)CCCCN(CCc1ccccc1OCc1cccc2c1CCCC2)C1CCCc2cc(C(=O)O)ccc21 (stereo not drawn) [Example 29, 5-{N-(4-Carboxybutyl)-N-[2-[2-(5,6,7,8-tetrahydronaphthalene-1-ylmethoxy)phenyl]ethyl]amino}-5,6,7,8-tetrahydronaphthalene-2-carboxylic acid]
